From article PMC7477889 (SLAS discovery : advancing life sciences R & D, 2020)
Entries after “also recorded” stand apart in the source; their conditions may differ. Where two headings read alike, the source gives them in different places.

Experiments:
GFP-AR = details: read-out: Nuclear Translocation EC50, cited from earlier work
[1] = tested on: GFP-PRER (chimeric progesterone receptor with ERα DBD); details: result in words; cited from earlier work
[2] = target: T1, GFP-ARER (chimeric androgen receptor with ERα DBD) (Homo sapiens, UniProt P10275, A574V/A587S/A588I/A597P/A623V/C570Y/D601Q/DEL544-554/E566Y/E589Q/F607N/G564N/G578E/I562V/K558R/K591H/K593D/L561A/L575W/L595M/L627K/N611S/P555K/P556E/P613Q/Q557T/Q592N/R599T/S579G/S598A/S614A/T542S/T559Y/T576S/T626M/V582A); assay: GFP-ARER:PRL-HeLa high content analysis assay; format: cell-based
T1 sequence (P10275 with tags, fused parts or gaps T542S/DEL544-554/P555K/P556E/Q557T/K558R/T559Y/L561A/I562V/G564N/E566Y/C570Y/A574V/L575W/T576S/G578E/S579G/V582A/A587S/A588I/E589Q/K591H/Q592N/K593D/L595M/A597P/S598A/R599T/D601Q/F607N/N611S/P613Q/S614A/A623V/T626M/L627K): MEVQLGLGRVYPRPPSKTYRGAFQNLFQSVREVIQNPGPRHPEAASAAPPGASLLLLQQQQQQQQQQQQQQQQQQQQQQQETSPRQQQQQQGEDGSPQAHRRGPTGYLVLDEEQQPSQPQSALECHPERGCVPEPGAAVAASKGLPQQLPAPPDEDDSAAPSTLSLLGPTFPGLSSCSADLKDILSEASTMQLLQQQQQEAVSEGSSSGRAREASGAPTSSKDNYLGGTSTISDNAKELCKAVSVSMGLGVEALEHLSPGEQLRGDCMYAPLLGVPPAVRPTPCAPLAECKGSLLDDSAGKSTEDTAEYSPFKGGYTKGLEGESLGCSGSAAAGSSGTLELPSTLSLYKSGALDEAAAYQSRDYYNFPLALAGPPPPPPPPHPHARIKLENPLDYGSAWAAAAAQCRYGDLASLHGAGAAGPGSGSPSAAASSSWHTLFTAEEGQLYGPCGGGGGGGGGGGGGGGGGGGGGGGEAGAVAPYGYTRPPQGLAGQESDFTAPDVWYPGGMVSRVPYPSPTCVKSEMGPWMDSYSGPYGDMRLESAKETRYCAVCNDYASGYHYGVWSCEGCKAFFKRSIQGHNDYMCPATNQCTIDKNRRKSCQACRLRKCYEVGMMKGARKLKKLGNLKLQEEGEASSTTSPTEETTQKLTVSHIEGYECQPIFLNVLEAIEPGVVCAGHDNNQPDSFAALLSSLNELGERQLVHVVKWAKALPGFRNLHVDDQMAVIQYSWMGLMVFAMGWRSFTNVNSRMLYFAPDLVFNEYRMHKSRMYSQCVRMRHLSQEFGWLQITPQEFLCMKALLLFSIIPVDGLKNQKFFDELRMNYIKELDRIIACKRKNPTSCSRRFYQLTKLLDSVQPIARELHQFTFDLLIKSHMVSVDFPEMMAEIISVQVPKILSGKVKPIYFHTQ

[3] = AUC normalized to vehicle and DHT controls, result in words
[4] = GFP-ARER:PRL-HeLa, 2 hours, result in words

## C[C@]12CCC(=O)C[C@@H]1CC[C@@H]1[C@@H]2CC[C@]2(C)[C@@H](O)CC[C@@H]12 [DHT, 5α-dihydrotestosterone]
GFP-AR; GFP-AR:HeLa
  EC50: 11 ± 2 nM

## CC#C[C@]1(O)CC[C@H]2[C@@H]3CCC4=CC(=O)CCC4=C3[C@@H](c3ccc(N(C)C)cc3)C[C@@]21C [RU486]
[1]
  visible chromatin binding in the GFP-PRER:PRL-HeLa cell model: induces visible chromatin binding

## CN(C)c1ccc([C@H]2C[C@]3(C)[C@@H](CC[C@]3(O)CCCO)[C@@H]3CCC4=CC(=O)CCC4=C32)cc1 [ZK98299]
[1]
  visible chromatin binding in the GFP-PRER:PRL-HeLa cell model: does not

## C[C@]12CC[C@@H]3c4ccc(O)cc4CC[C@H]3[C@@H]1CCC2=O [estrone]
[2]; [3]
  AUC score for nuclear translocation, chromatin binding, and receptor stabilization (k-means cluster): low/moderate AUC score
[2]; [4]
  GFP-ARER nuclear translocation: strongest responders
  visible chromatin binding (PRL array spot) by GFP-ARER: induce a visible spot indicating chromatin binding

## CC(C)(O)C(=O)Nc1ccc([N+](=O)[O-])c(C(F)(F)F)c1 [hydroxyflutamide]
[2]
  GFP-ARER nuclear translocation: strongest responders; also recorded: induced GFP-ARER nuclear translocation
  nuclear translocation AUC score (k-means Cluster 3): stronger AUC scores
  visible chromatin binding (PRL array spot) by GFP-ARER: undetectable evidence of chromatin binding

## CC12CC1(C)C(=O)N(c1cc(Cl)cc(Cl)c1)C2=O (stereo not shown) [promycidone, procymidone]
[2]; [3]
  nuclear translocation AUC score (k-means Cluster 3): stronger AUC scores
[2]; [4]
  GFP-ARER nuclear translocation: strongest responders

## Cc1cc(C(C)(C)c2cc(C)c(O)c(C)c2)cc(C)c1O [tetramethyl-bisphenol A]
[2]; supplemented ATSDR chemicals and mixtures, 0.1 nM to 10 μM (chemicals), 200-fold to 200,000-fold dilution (mixtures), 2 hours
  nuclear translocation response: 10-12 % of DHT response
